Data reported in patent publication US6187906A, “Methods to improve neural outcome” (Aukland Uniservices Limited, priority 1998, dated 2001).

Columns and labels:
[1] = test system: mesencephalic neurons (dopaminergic); assay: Dopamine uptake in 6-OHDA treated embryonic mesencephalic cultures (Experiment 8); assay type: cell-based, Wistar rat; conditions: 0.01-100 μM GPE, 4 μM 6-OHDA
Description: Wistar rat ventral mesencephali from E15 (E1=plug) fetuses were dissected, pooled, and gently dissociate by repeated trituration in 3 ml of sterile modified Krebs-Ringer medium (Gibco, Life Technologies Ltd., NZ) supplemented per liter with 50,000 IU penicillin, 50 mg streptomycin, 1.26 g NaHCO3, and 2.2 g glucose. 2 ml of media was added and the suspension allowed to stand for 7 minutes, after which the supernatant was centrifuged for 7 minutes at 350 xg. The pellet was resuspended in serum-containing media: MEM media with 50,000 IU penicillin, 50 mg streptomycin, 1.26 g NaHCO3 and 5% fetal calf serum (Gibco). Cells were seeded at 2.5-4.0×10^5 trypan-excluding viable cells/cm^2 in sterile 24 well plates precoated for two hours with 5 μg/ml poly-L lysine in H2 O. Cultures were allowed to recover for 24 h at 37° C. in a humidified 95% air: 5% CO2 incubator. […]
Cultures were assayed for dopamine uptake using a modified procedure of Prochiantz et al., 1981 (Nature, Vol. 293, No., 5833). […] The wells were then rinsed with 250 μl 1% Triton X-100 and the contents added to the appropriate scintillation vial containing 4 ml of Ready safe scintillation fluid (Beckman, Palo Alto, Calif.). […]

[2] = test system: neurons in the CA1-2 region of the hippocampus; assay type: in vivo, Wistar rats
Description: The objective of this study was to compare the effects of treatment with GPE to that of a vehicle given 2 hours after an hypoxic-ischemic injury. The dose range of 2 to 200 μg was chosen to span a range of systemic doses that are greater than that required centrally (see experiment 3).
Unilateral hypoxic-ischemic injury was induced in 21 day old, 45±5 g Wistar rats. The rats underwent unilateral carotid ligation under light halothane anaesthesia.
Following one hour recovery they were placed in an incubator at 34 deg C. 85±5% humidity for one hour before the injury. They were subjected to […] inhalation hypoxia (Fi02.8.0%) and then returned to room temperature (22 deg C.) and normoxia. […]
Surviving and dead neurons were discriminated using the thionin/acid fuchsin staining technique (Guan et al J Cereb Blood Flow Metab. 13:609-616 (1993). The results, in which the height of a point is given by the ratio as a percentage of live neurones in the CA1-2 region on the right side to the number on the left side are shown in FIG. 5. Column A is vehicle, column B is 2 μg of GPE, column C is 20 μg of GPE, and column D is 200 μg of GPE. In this figure, the P value (0.031) was calculated by a method using one way ANOVA comparing many groups after Arcsin transformation.

[3] = test system: TH positive neurons of the SNc; assay: 6-OHDA lesion of medial forebrain bundle, TH neuron number and staining density in SNc (Experiment 6); assay type: in vivo
Description: A paired experimental design was used and the experimenter was blinded to the treatment groups. Eighteen male Wistar rats (50-60 days old, 280-310 g) were used for this study. 6-hydroxy dopamine (6-OHDA) was prepared as 8 μg in a base of 2 μl 0.9% saline containing 1% ascorbic acid. It was administered into the right medial forebrain bundle (MFB) using coordinates of AP +4.7 mm, R 1.6 mm, V -8 mm under anaesthesia of 3% halothane, 6-OHDA was injected into the right MFB using a Hamilton syringe (100 μl with a 30G needle) controlled by a microdialysis infusion pump at an infusion rate of 0.2 μl/minute. The infusion needle was then slowly withdrawn 5 minutes after infusion. The surgery procedures for the intracerebroventricular administration have been described by Guan et al (1993), Journal of Cerebral Blood Flow and Metab, 13, 609-616. Briefly, a guide cannula (21G, 6 mm) was fixed on the top of the dura with coordinates of AP +7.5 mm, R 1.5 mm immediately after the injection of 6-OHDA. Either GPE (3 μg/15 μl) or its vehicle were infused into the right lateral ventricle 2 hours later at an infusion rate of 2 μl/minute (Guan et al (1993)). Rats were then housed in a holding room with food and water ad libitum for the next 2 weeks.
The rats were then deeply anaesthetized with an overdose of pentobarbital and transcardially perfused with normal saline followed by 10% buffered formalin. The brains were removed from the skull and kept in the same fixative for the next 48 hours. A standard paraffin tissue preparation was used to process the tissue so that it could be used for immunohistochemistry. […]
The number of TH positive neurons on both sides of the SNc were counted using light microscopic examination (20×magnification) at three representative levels (AP +4.2, +3.8 mm and […]) (Paxinos, et al (1982) New York: Academic Press).
The average density from the background was also measured. […] The difference in average density between the background and TH immunostaining was calculated and used for data analysis. […]

Structure (SMILES): NCC(=O)N1CCC[C@H]1C(=O)N[C@@H](CCC(=O)O)C(=O)O [GPE, gly-pro-glu]
- protection from 6-OHDA toxicity (dopamine uptake) [1]: protects mesencephalic neurons
- loss of neurons in the CA1-2 region of the hippocampus ([2]; 20 μg GPE single intraperitoneal injection 2 hours after injury, 120 hrs, p<0.05): reduced the loss of neurons
- crossing of the blood-brain barrier ([2]; rat, in vivo): can cross the blood-brain barrier
- TH immunoreactivity (density of TH immunostaining, R/L) ([3]; caudal levels, 3 μg GPE, vehicle 16±11.2, mean ±SEM): 99.6±27%
- neurons remaining in the ipsilateral SNc ([3]; caudal levels, GPE 3 μg, vehicle 16.3±11.5): over 60.9±13.0%
- TH immunoreactivity (density of TH immunostaining) ([3]; lesioned (right) side, 3 μg GPE icv 2 hours after 6-OHDA, 2 weeks): restored
